Laboratory results as given in patent US20250275975A1, “Methods of Treating Neuropathies” (Athira Pharma, Inc., priority 2023, published 2025).

How the values were obtained:
Format in all cases: in vivo, Sprague Dawley rats
[1] = test system: rat model of STZ-induced DNP; assay: Comparison of dosing schedules, mechanical allodynia (von Frey filaments), Example B2; design: key to Efficacy: rescue of mechanical allodynia behavior as measured by paw withdrawal threshold: NS indicates treatment did not significantly affect paw withdrawal threshold vs DNP control.; + indicates p < 0.05 vs DNP control.; ++ indicates p < 0.01 vs DNP control.; +++ indicates p < 0.001 vs DNP control; details: for Efficacy: rescue of mechanical allodynia behavior as measured by paw withdrawal threshold: p vs DNP control
Experimental: (§1) An additional series of studies were performed to compare the ability of Compound 1a to reduce mechanical allodynia and thermal hyperalgesia pain behaviors in hyperglycemic rats dosed once or twice daily. Briefly, a single dose of STZ (55 mg/kg via intravenous (IV)) was administered to induce a Type I diabetic hyperglycemia in male Sprague Dawley rats. Hyperglycemia was confirmed 4 days after STZ administration, with blood glucose levels above 200 mg/dL considered successful model induction. Development of a painful phenotype was confirmed 14 days after STZ administration through assessments of both mechanical allodynia and thermal hyperalgesia. Starting 15 days after disease induction, Compound 1a (8 mg/kg) was orally administered once (QD) or twice (Q12h) daily from day 15 to day 41. Control groups included animals with no diabetic induction (Sham control) and animals with diabetes but treated only with formulation vehicle (DNP [diabetic peripheral neuropathy] control).
(§2) Mechanical allodynia and thermal hyperalgesia were assessed as described in Example B1. Briefly, on study days 21, 27, 35, and 41, mechanical allodynia and thermal hyperalgesia were assessed one-hour post-dose using von Frey filaments (1.4, 4, 10, 15, 26, 48, and 60 g) and the hot plate test (52.5° C.), respectively. Pain level was also measured on day 48 following a 7-day compound-free washout to evaluate the persistence of the effects of administration of Compound 1a.

STZ DNP rats [2] = assay: Mechanical allodynia rescue assay (Von Frey paw withdrawal threshold), Example B1; design: key to Efficacy: rescue of mechanical allodynia behavior as measured by paw withdrawal threshold: NS indicates treatment did not significantly affect paw withdrawal threshold vs disease control.; + indicates p < 0.05 vs disease control.; ++ indicates p < 0.01 vs disease control.; +++ indicates p < 0.001 vs disease control; details: for Efficacy: rescue of mechanical allodynia behavior as measured by paw withdrawal threshold: study day 28 after 14 days of treatment, p vs disease control
Source text: Hyperglycemic rats consistently develop neuropathic pain-associated behaviors including mechanical allodynia. Allodynia refers to a type of neuropathic pain characterized by increased sensitivity to stimuli that are not normally painful. Mechanical allodynia is quantified in rats by determination of the force required to induce a withdrawal of the paw and is negatively associated with allodynia such that, the lower the force required to induce paw withdrawal, the greater the pain behavior.
(§3) A series of studies were performed to determine the ability of HGF/MET positive modulator compounds to reduce the mechanical allodynia pain behaviors in hyperglycemic rats. A single dose of STZ (55 mg/kg via intravenous (IV)) was administered to induce a Type I diabetic hyperglycemia in male Sprague Dawley rats. Hyperglycemia was confirmed 4 days after STZ administration, with blood glucose levels above 200 mg/dL considered successful model induction. 14 days after disease induction, test compound treatment was initiated and continued as daily compound administration over the remaining course of the study. Route and dose for each compound were determined by pharmacokinetic and distribution modelling. Control groups included animals with no diabetic induction (Sham control), animals with diabetes but treated only with formulation vehicle (DNP (diabetic peripheral neuropathy) control), and disease animals treated with pregabalin (30 mg/kg via PO), which is known to reduce neuropathic pain behaviors.
(§4) Changes to neuropathic pain behaviors were assessed after 14 days of compound treatment on study day 28. Mechanical allodynia was tested by placing each animal on an elevated wire grid and stimulating the plantar surface of the right rear paw with a series of filaments corresponding to increasing orders of force, reaching a maximum force of 60 grams (Aesthesio manual Von Frey filaments). The force of the filament that causes paw withdrawal was considered the paw withdrawal threshold in grams. Pain sensitivity in response to thermal hyperalgesia was determined by using hot plate method and represented as paw withdrawal latency (PWL). Rats were placed on the hot plate (52.5° C.), and the time taken to show the nocifensive behavior (either licking or jumping) of any of their paws was recorded. Statistical comparison of treatment groups to DNP control groups was performed by one-way ANOVA followed by Dunnett's multiple comparisons test.

STZ DNP rats [3] = assay: Thermal hyperalgesia rescue assay (hot plate paw withdrawal latency), Example B1; design: key to Efficacy: rescue of thermal hyperalgesia behavior as measured by paw withdrawal latency: NS indicates treatment did not significantly affect paw withdrawal latency vs disease control.; + indicates p < 0.05 vs disease control.; ++ indicates p < 0.01 vs disease control.; +++ indicates p < 0.001 vs disease control; details: for Efficacy: rescue of thermal hyperalgesia behavior as measured by paw withdrawal latency: study day 28 after 14 days of treatment, hot plate 52.5° C., p vs disease control
Experimental: as §3, §4

[4] = test system: rat model of STZ-induced DNP; assay: Comparison of dosing schedules, thermal hyperalgesia (hot plate test), Example B2; design: key to Efficacy: rescue of thermal hyperalgesia behavior as measured by paw withdrawal latency: NS indicates treatment did not significantly affect paw withdrawal latency vs DNP control.; + indicates p < 0.05 vs DNP control.; ++ indicates p < 0.01 vs DNP control.; +++ indicates p < 0.001 vs DNP control; details: for Efficacy: rescue of thermal hyperalgesia behavior as measured by paw withdrawal latency: p vs DNP control
Experimental: as §1, §2

[5] = 8 mg/kg PO Q12 h from day 15 to day 41, Day 21, one-hour post-dose
[6] = 8 mg/kg PO Q12 h from day 15 to day 41, Day 27, one-hour post-dose
[7] = 8 mg/kg PO Q12 h from day 15 to day 41, Day 48, after 7-day compound-free washout
[8] = 8 mg/kg PO QD from day 15 to day 41, Day 21, one-hour post-dose
[9] = 8 mg/kg PO QD from day 15 to day 41, Day 27, one-hour post-dose
[10] = 8 mg/kg PO QD from day 15 to day 41, Day 48, after 7-day compound-free washout
[11] = 8 mg/kg PO QD or Q12h, starting on day 27
[12] = day 48, after 7-day compound-free washout

CCC(C)CN1CC2N(C(=O)c3ccc(C(F)(F)F)cc3)CCC(=O)N2[C@@H](C)C1=O (some centres unmarked) [Compound 1a]
Efficacy: rescue of mechanical allodynia behavior as measured by paw withdrawal threshold [1, 5]: NS
Efficacy: rescue of mechanical allodynia behavior as measured by paw withdrawal threshold [1, 6]: ++ (++ indicates p < 0.01 vs DNP control.)
Efficacy: rescue of mechanical allodynia behavior as measured by paw withdrawal threshold [1, 7]: +++ (+++ indicates p < 0.001 vs DNP control.)
Efficacy: rescue of mechanical allodynia behavior as measured by paw withdrawal threshold [1, 8]: NS
Efficacy: rescue of mechanical allodynia behavior as measured by paw withdrawal threshold [1, 9]: ++ (++ indicates p < 0.01 vs DNP control.)
Efficacy: rescue of mechanical allodynia behavior as measured by paw withdrawal threshold [1, 10]: NS
reversal of the increase in pain-related behaviors, mechanical allodynia [1, 11]: effectively reversed
persistence of pain-reducing effects, mechanical allodynia [1, 12]: sustained
Efficacy: rescue of mechanical allodynia behavior as measured by paw withdrawal threshold (STZ DNP rats [2]; 0.05 mg/kg PO daily): NS
Efficacy: rescue of mechanical allodynia behavior as measured by paw withdrawal threshold (STZ DNP rats [2]; 0.2 mg/kg PO daily): NS
Efficacy: rescue of mechanical allodynia behavior as measured by paw withdrawal threshold (STZ DNP rats [2]; 2 mg/kg PO daily): +++ (+++ indicates p < 0.001 vs disease control.)
Efficacy: rescue of mechanical allodynia behavior as measured by paw withdrawal threshold (STZ DNP rats [2]; 8 mg/kg PO daily): +++ (+++ indicates p < 0.001 vs disease control.)
rescue of the mechanical allodynia behavior as measured by paw withdrawal threshold (STZ DNP rats [2]; STZ DNP rats): significant rescue
Efficacy: rescue of thermal hyperalgesia behavior as measured by paw withdrawal latency (STZ DNP rats [3]; 0.05 mg/kg PO daily): NS
Efficacy: rescue of thermal hyperalgesia behavior as measured by paw withdrawal latency (STZ DNP rats [3]; 0.2 mg/kg PO daily): NS
Efficacy: rescue of thermal hyperalgesia behavior as measured by paw withdrawal latency (STZ DNP rats [3]; 2 mg/kg PO daily): +++ (+++ indicates p < 0.001 vs disease control.)
Efficacy: rescue of thermal hyperalgesia behavior as measured by paw withdrawal latency (STZ DNP rats [3]; 8 mg/kg PO daily): +++ (+++ indicates p < 0.001 vs disease control.)
rescue of thermal allodynia behavior as measured by paw withdrawal latency (STZ DNP rats [3]; STZ DNP rats): significant rescue
Efficacy: rescue of thermal hyperalgesia behavior as measured by paw withdrawal latency [4, 5]: NS
Efficacy: rescue of thermal hyperalgesia behavior as measured by paw withdrawal latency [4, 6]: + (+ indicates p < 0.05 vs DNP control.)
Efficacy: rescue of thermal hyperalgesia behavior as measured by paw withdrawal latency [4, 7]: +++ (+++ indicates p < 0.001 vs DNP control.)
Efficacy: rescue of thermal hyperalgesia behavior as measured by paw withdrawal latency [4, 8]: NS
Efficacy: rescue of thermal hyperalgesia behavior as measured by paw withdrawal latency [4, 9]: + (+ indicates p < 0.05 vs DNP control.)
Efficacy: rescue of thermal hyperalgesia behavior as measured by paw withdrawal latency [4, 10]: +++ (+++ indicates p < 0.001 vs DNP control.)
reversal of the increase in pain-related behaviors, thermal allodynia [4, 11]: effectively reversed
persistence of pain-reducing effects, thermal allodynia [4, 12]: sustained
